Experimental data as given in patent EP4725957A1, “GROUP OF CYCLIC ALKALINE LIPOPEPTIDE COMPOUNDS, AND PREPARATION METHOD THEREFOR AND USE THEREOF” (Institute of Medicinal Biotechnology, Chinese Academy of …, priority 2023, dated 2024).
In brackets after ≈: the same amount, converted by molar mass. Bridge positions count the residues as written; N and C are the ends. Square brackets hold non-standard residues; d marks the D form. Peptide text beside a SMILES is read from it. * marks the point of attachment. Heptanoyl(6-Me) = CC(C)CCCCC(=O)*; dOrn = NCCC[C@@H](N)C(=O)O; dDab = NCC[C@@H](N)C(=O)O; Heptanoyl = CCCCCCC(=O)*; Octanoyl = CCCCCCCC(=O)*; Orn = NCCC[C@H](N)C(=O)O; Dab = NCC[C@H](N)C(=O)O; Dap = NC[C@H](N)C(=O)O

How the values were obtained:
Assay type in all cases: cell-based
[1] = tested on: Escherichia coli ATCC BAA-2523; conditions: ATCC BAA-2523
Summary of the method: (§1)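 Per CLSI, bacteria at a final (2-4) × 10^5 CFU/mL were exposed in Mueller-Hinton broth to two-fold compound series (final 64 down to 0.03 mg/L). MIC read after 16-20 h at 35-37°C in sealed plates.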

[2] = tested on: Klebsiella pneumoniae KPN+19-15; conditions: KPN+19-15
Summary of the method: as §1

[3] = tested on: Escherichia coli ATCC BAA-2340 (KPC); conditions: ATCC BAA-2340
Summary of the method: as §1

[4] = tested on: Pseudomonas aeruginosa ATCC 27853; conditions: ATCC 27853
Summary of the method: as §1

[5] = tested on: Pseudomonas aeruginosa PAE19-3; conditions: PAE19-3
Summary of the method: as §1

[6] = tested on: Acinetobacter baumannii ABA19-1; conditions: ABA19-1
Summary of the method: as §1

[7] = tested on: Acinetobacter baumannii NCTC 13304 (OXA-27); conditions: NCTC 13304
Summary of the method: as §1

[8] = tested on: Klebsiella pneumoniae ATCC BAA-1705 (KPC); conditions: ATCC BAA-1705
Summary of the method: as §1

[9] = Nephrotoxicity assay: in vitro cytotoxicity of HK-2 cells by CCK-8 assay; conditions: human, HK-2 cells (human renal), 72 h incubation with drug-containing medium
Summary of the method: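 Compounds in sterile water, diluted to final 500, 250, 200, 100, 50, 25 and 12.5 µg/mL, were applied for 72 h to human HK-2 kidney cells. Absorbance at 450 nm after 3 h CCK-8 gave viability against untreated wells, and IC50 came from logarithmic regression; three replicates.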

Structure (SMILES)	MIC [1]	MIC [2]	MIC [3]	MIC [4]	MIC [5]	MIC [6]	MIC [7]	MIC [8]	IC50 at 72 h [9]
CCCCCCC(=O)N[C@@H](CCN)C(=O)N[C@H](C(=O)N[C@H](CO)C(=O)N[C@H]1CCNC(=O)[C@H]([C@@H](C)O)NC(=O)[C@H](CCN)NC(=O)[C@H](CCN)NC(=O)[C@H]([C@@H](C)O)NC(=O)[C@@H](Cc2ccccc2)NC(=O)[C@H](CCCN)NC1=O)[C@@H](C)O [Compound 69, Heptanoyl-Dab-Thr-D-Ser-ring(4-10)[Dab-Orn-D-Phe-Thr-Dab-Dab-Thr]] (Heptanoyl-[Dab]T[dS][Dab][Orn][dF]T[Dab][Dab]T; lactam 4-C)	0.5 µg/mL (≈ 0.429 µM)	0.5 µg/mL (≈ 0.429 µM)	0.5 µg/mL (≈ 0.429 µM)	64 µg/mL (≈ 55 µM)	8 µg/mL (≈ 6.87 µM)	0.25 µg/mL (≈ 0.215 µM)	0.25 µg/mL (≈ 0.215 µM)	0.25 µg/mL (≈ 0.215 µM)	> 500 µg/mL
CCCCCCC(=O)N[C@@H](CCN)C(=O)N[C@H](C(=O)N[C@@H](CCN)C(=O)N[C@H]1CCNC(=O)[C@H]([C@@H](C)O)NC(=O)[C@H](CCN)NC(=O)[C@H](CCN)NC(=O)[C@H]([C@@H](C)O)NC(=O)[C@@H](Cc2ccccc2)NC(=O)[C@H](CCN)NC1=O)[C@@H](C)O [Compound 19, Heptanoyl-Dab-Thr-Dab-ring(4-10)[Dab-Dab-D-Phe-Thr-Dab-Dab-Thr]] (Heptanoyl-[Dab]T[Dab][Dab][Dab][dF]T[Dab][Dab]T; lactam 4-C)	0.03 µg/mL (≈ 0.0258 µM)	0.03 µg/mL (≈ 0.0258 µM)	0.03 µg/mL (≈ 0.0258 µM)	2 µg/mL (≈ 1.72 µM)	2 µg/mL (≈ 1.72 µM)	0.5 µg/mL (≈ 0.43 µM)	0.25 µg/mL (≈ 0.215 µM)	0.06 µg/mL (≈ 0.0516 µM)	> 500 µg/mL
CCCCCCC(=O)N[C@@H](CCN)C(=O)N[C@H](C(=O)N[C@H](CO)C(=O)N[C@H]1CCNC(=O)[C@H]([C@@H](C)O)NC(=O)[C@H](CCN)NC(=O)[C@H](CCN)NC(=O)[C@H]([C@@H](C)O)NC(=O)[C@@H](Cc2ccccc2)NC(=O)[C@H](CN)NC1=O)[C@@H](C)O [Compound 64, Heptanoyl-Dab-Thr-D-Ser-ring(4-10)[Dab-Dap-D-Phe-Thr-Dab-Dab-Thr]] (Heptanoyl-[Dab]T[dS][Dab][Dap][dF]T[Dab][Dab]T; lactam 4-C)	0.25 µg/mL (≈ 0.22 µM)	0.5 µg/mL (≈ 0.44 µM)	0.25 µg/mL (≈ 0.22 µM)	64 µg/mL (≈ 56.3 µM)	8 µg/mL (≈ 7.04 µM)	0.25 µg/mL (≈ 0.22 µM)	0.25 µg/mL (≈ 0.22 µM)	0.25 µg/mL (≈ 0.22 µM)	> 500 µg/mL
CC(C)CCCCC(=O)N[C@@H](CCN)C(=O)N[C@H](C(=O)N[C@@H](CCCN)C(=O)N[C@H]1CCNC(=O)[C@H]([C@@H](C)O)NC(=O)[C@H](CCN)NC(=O)[C@H](CCN)NC(=O)[C@H](CC(C)C)NC(=O)[C@@H](Cc2ccccc2)NC(=O)[C@H](CCN)NC1=O)[C@@H](C)O [Compound 47, 6-methylheptanoyl-Dab-Thr-Orn-ring(4-10)[Dab-Dab-D-Phe-Leu-Dab-Dab-Thr]] ({Heptanoyl(6-Me)}-[Dab]T[Orn][Dab][Dab][dF]L[Dab][Dab]T; lactam 4-C)	0.03 µg/mL (≈ 0.0249 µM)	≤0.03 µg/mL	0.03 µg/mL (≈ 0.0249 µM)	≤0.03 µg/mL	0.25 µg/mL (≈ 0.208 µM)	0.125 µg/mL (≈ 0.104 µM)	0.06 µg/mL (≈ 0.0499 µM)	≤0.03 µg/mL	358 ± 11.2 µg/mL (≈ 297 µM)
CCCCCCCC(=O)N[C@@H](CCN)C(=O)N[C@H](C(=O)N[C@H](CCCN)C(=O)N[C@H]1CCNC(=O)[C@H]([C@@H](C)O)NC(=O)[C@H](CCN)NC(=O)[C@H](CCN)NC(=O)[C@H]([C@@H](C)O)NC(=O)[C@@H](Cc2ccccc2)NC(=O)[C@H](CCN)NC1=O)[C@@H](C)O [Compound 23, Octanoyl-Dab-Thr-D-Orn-ring(4-10)[Dab-Dab-D-Phe-Thr-Dab-Dab-Thr]] (Octanoyl-[Dab]T[dOrn][Dab][Dab][dF]T[Dab][Dab]T; lactam 4-C)	≤0.03 µg/mL	0.125 µg/mL (≈ 0.105 µM)	≤0.03 µg/mL	0.25 µg/mL (≈ 0.21 µM)	1 µg/mL (≈ 0.839 µM)	0.125 µg/mL (≈ 0.105 µM)	0.06 µg/mL (≈ 0.0504 µM)	0.06 µg/mL (≈ 0.0504 µM)	> 500 µg/mL
CC(C)CCCCC(=O)N[C@@H](CCN)C(=O)N[C@H](C(=O)N[C@@H](CCCN)C(=O)N[C@H]1CCNC(=O)[C@H]([C@@H](C)O)NC(=O)[C@H](CCN)NC(=O)[C@H](CCN)NC(=O)[C@H]([C@@H](C)O)NC(=O)[C@@H](Cc2ccccc2)NC(=O)[C@H](CCN)NC1=O)[C@@H](C)O [Compound 27, 6-methylheptanoyl-Dab-Thr-Orn-ring(4-10)[Dab-Dab-D-Phe-Thr-Dab-Dab-Thr]] ({Heptanoyl(6-Me)}-[Dab]T[Orn][Dab][Dab][dF]T[Dab][Dab]T; lactam 4-C)	≤0.03 µg/mL	≤0.03 µg/mL	≤0.03 µg/mL	≤0.03 µg/mL	0.25 µg/mL (≈ 0.21 µM)	0.125 µg/mL (≈ 0.105 µM)	0.06 µg/mL (≈ 0.0504 µM)	≤0.03 µg/mL	> 500 µg/mL
CCCCCCCC(=O)N[C@@H](CCN)C(=O)N[C@H](C(=O)N[C@H](CO)C(=O)N[C@H]1CCNC(=O)[C@H]([C@@H](C)O)NC(=O)[C@H](CCN)NC(=O)[C@H](CCN)NC(=O)[C@H]([C@@H](C)O)NC(=O)[C@@H](Cc2ccccc2)NC(=O)[C@H](CN)NC1=O)[C@@H](C)O [Compound 63, Octanoyl-Dab-Thr-D-Ser-ring(4-10)[Dab-Dap-D-Phe-Thr-Dab-Dab-Thr]] (Octanoyl-[Dab]T[dS][Dab][Dap][dF]T[Dab][Dab]T; lactam 4-C)	0.125 µg/mL (≈ 0.109 µM)	0.5 µg/mL (≈ 0.435 µM)	0.125 µg/mL (≈ 0.109 µM)	64 µg/mL (≈ 55.6 µM)	4 µg/mL (≈ 3.48 µM)	0.25 µg/mL (≈ 0.217 µM)	0.25 µg/mL (≈ 0.217 µM)	0.25 µg/mL (≈ 0.217 µM)	> 500 µg/mL
CCCCCCC(=O)N[C@@H](CCN)C(=O)N[C@H](C(=O)N[C@H](CCN)C(=O)N[C@H]1CCNC(=O)[C@H]([C@@H](C)O)NC(=O)[C@H](CCN)NC(=O)[C@H](CCN)NC(=O)[C@H]([C@@H](C)O)NC(=O)[C@@H](Cc2ccccc2)NC(=O)[C@H](CCN)NC1=O)[C@@H](C)O [Compound 14, Heptanoyl-Dab-Thr-D-Dab-ring(4-10)[Dab-Dab-D-Phe-Thr-Dab-Dab-Thr]] (Heptanoyl-[Dab]T[dDab][Dab][Dab][dF]T[Dab][Dab]T; lactam 4-C)	0.03 µg/mL (≈ 0.0258 µM)	0.03 µg/mL (≈ 0.0258 µM)	0.03 µg/mL (≈ 0.0258 µM)	2 µg/mL (≈ 1.72 µM)	2 µg/mL (≈ 1.72 µM)	0.03 µg/mL (≈ 0.0258 µM)	0.03 µg/mL (≈ 0.0258 µM)	0.06 µg/mL (≈ 0.0516 µM)	> 500 µg/mL
CCCCCCCC(=O)N[C@@H](CCN)C(=O)N[C@H](C(=O)N[C@@H](CCN)C(=O)N[C@H]1CCNC(=O)[C@H]([C@@H](C)O)NC(=O)[C@H](CCN)NC(=O)[C@H](CCN)NC(=O)[C@H]([C@@H](C)O)NC(=O)[C@@H](Cc2ccccc2)NC(=O)[C@H](CCN)NC1=O)[C@@H](C)O [Compound 18, Octanoyl-Dab-Thr-Dab-ring(4-10)[Dab-Dab-D-Phe-Thr-Dab-Dab-Thr]] (Octanoyl-[Dab]T[Dab][Dab][Dab][dF]T[Dab][Dab]T; lactam 4-C)	≤0.03 µg/mL	≤0.03 µg/mL	0.06 µg/mL (≈ 0.051 µM)	0.5 µg/mL (≈ 0.425 µM)	0.5 µg/mL (≈ 0.425 µM)	0.5 µg/mL (≈ 0.425 µM)	0.25 µg/mL (≈ 0.212 µM)	0.5 µg/mL (≈ 0.425 µM)	> 500 µg/mL
CC(C)CCCCC(=O)N[C@@H](CCN)C(=O)N[C@H](C(=O)N[C@H](CO)C(=O)N[C@H]1CCNC(=O)[C@H]([C@@H](C)O)NC(=O)[C@H](CCN)NC(=O)[C@H](CCCN)NC(=O)[C@H]([C@@H](C)O)NC(=O)[C@@H](Cc2ccccc2)NC(=O)[C@H](CCN)NC1=O)[C@@H](C)O [Compound 77, 6-methylheptanoyl-Dab-Thr-D-Ser-ring(4-10)[Dab-Dab-D-Phe-Thr-Orn-Dab-Thr]] ({Heptanoyl(6-Me)}-[Dab]T[dS][Dab][Dab][dF]T[Orn][Dab]T; lactam 4-C)	≤0.03 µg/mL	0.5 µg/mL (≈ 0.424 µM)	≤0.03 µg/mL	>64 µg/mL	64 µg/mL (≈ 54.3 µM)	0.06 µg/mL (≈ 0.0509 µM)	≤0.03 µg/mL	0.25 µg/mL (≈ 0.212 µM)	> 500 µg/mL
CCCCCCC(=O)N[C@@H](CN)C(=O)N[C@H](C(=O)N[C@H](CO)C(=O)N[C@H]1CCNC(=O)[C@H]([C@@H](C)O)NC(=O)[C@H](CCN)NC(=O)[C@H](CCN)NC(=O)[C@H]([C@@H](C)O)NC(=O)[C@@H](Cc2ccccc2)NC(=O)[C@H](CCN)NC1=O)[C@@H](C)O [Compound 54, Heptanoyl-Dap-Thr-D-Ser-ring(4-10)[Dab-Dab-D-Phe-Thr-Dab-Dab-Thr]] (Heptanoyl-[Dap]T[dS][Dab][Dab][dF]T[Dab][Dab]T; lactam 4-C)	0.03 µg/mL (≈ 0.0264 µM)	0.5 µg/mL (≈ 0.44 µM)	0.03 µg/mL (≈ 0.0264 µM)	64 µg/mL (≈ 56.3 µM)	8 µg/mL (≈ 7.04 µM)	0.25 µg/mL (≈ 0.22 µM)	0.25 µg/mL (≈ 0.22 µM)	0.25 µg/mL (≈ 0.22 µM)	> 500 µg/mL
